# From patent US10813920B2, “Drug for treating corneal endothelium by promoting cell proliferation or inhibiting cell damage” (THE DOSHISHA, priority 2013, dated 2020)
# What was measured:
# [1] = test system: cynomolgus monkey corneal endothelial cells; experiment: BrdU ELISA, concentration series, cynomolgus monkey corneal endothelial cells (Example 8); format: cell-based; conditions: concentration series per agent between 0.1 μM and 100 μM; 5000 cells/well; * p<0.01
# Experimental: The medium was removed from a culture dish culturing cynomolgus monkey corneal endothelial cells ([…] phosphate buffer solution (Nacalai Tesque, 14249-95) heated to 37° C. in advance was added thereto and the cells were washed. This operation was repeated twice. After removing the phosphate buffer solution, 0.05% Trypsin-EDTA (Nacalai Tesque, 35554-64) was added and the cells were incubated for 10 minutes at 37° C. (5% CO2). The cells were then suspended in DMEM (Nacalai Tesque, 08456-94)+10% FBS (Biowest, S1820-500)+1% penicillin/streptomycin (P/S, Nacalai Tesque, 26252-94) and centrifuged for 3 minutes at 1200 rpm to collect the cells. A 96-well plate was treated with an FNC coating mix (50 ml ([…], catalog number: 0407). The monkey corneal endothelial cells (lot: 20120404-3L-P8) were seeded in the coated 96-well plate at a ratio of 5000 cells/well. The cells were cultured for 30 hours at 37° C. (5% CO2). After 30 hours, the medium was removed and changed to a serum free medium: DMEM+1% P/S to culture the cells for 18 hours. […] DMSO was added to the control. After 24 hours, a BrdU labeling reagent (Amersham Cell Proliferation Biotrak ELISA System, Version 2, GE Healthcare, catalog number: RPN250) was further added at a ratio of 1:1000 to the DMEM+10% FBS+1% P/S medium. […] DMSO was added to the control. After 24 hours, BrdU ELISA was carried out with Amersham Cell Proliferation Biotrak ELISA System, Version 2 (GE Healthcare, catalog number: RPN250). The absorbance at 450 nm was measured. *P<0.01, Dunnet's test, n=5. As in (1), the medium was removed from a culture dish culturing cynomolgus monkey corneal endothelial cells. A phosphate buffer solution heated to 37° C. in advance was added thereto and the cells were washed. This operation was repeated twice. After removing the phosphate buffer solution, 0.05% Trypsin-EDTA (Nacalai Tesque, 35554-64) was added and the cells were incubated for 10 minutes at 37° C. (5% CO2). The cells were then suspended in DMEM (Nacalai Tesque, 08456-94)+10% FBS (Biowest, S1820-500)+1% penicillin/streptomycin (Nacalai Tesque, catalog number: 26252-94) and centrifuged for 3 minutes at 1200 rpm to collect the cells. A 96-well plate was treated with an FNC coating mix (50 ml ([…], catalog number: 0407). Monkey corneal endothelial cells (lot: 20120404-3L-P8) were seeded in the coated 96-well plate at a ratio of 5000 cells/well. The cells were cultured for 30 hours at 37° C. (5% CO2). After 30 hours, the medium was removed and changed to a serum free medium: DMEM+1% P/S to culture the cells for 18 hours. After 18 hours, Semapimod HCl (MedKoo Biosciences, catalog number: 202590, lot number: SMC20120918) was added to the DMEM+10% FBS+1% P/S medium such that the final concentration dissolved with DMSO was 0.1, 0.3, 1, 3, or 10 μmol/l, and the cells were cultured for 24 hours. DMSO was added to the control. After 24 hours, a BrdU labeling reagent (Amersham Cell Proliferation Biotrak ELISA System, Version 2, GE Healthcare, catalog number: RPN250) was further added at a ratio of 1:1000 to the DMEM+10% FBS+1% P/S medium. Semapimod HCl was added such that the final concentration was 0.1, 0.3, 1, 3, or 10 μmol/l and the cells were cultured for 24 hours. DMSO was added to the control. After 24 hours, BrdU ELISA was carried out with Amersham Cell Proliferation Biotrak ELISA System, Version 2 (GE Healthcare, catalog number: RPN250). The absorbance at 450 nm was measured. […]
# [2] = test system: cynomolgus monkey corneal endothelial cells; experiment: BrdU ELISA, one concentration per agent, monkey corneal endothelial cells (Example 9); format: cell-based; conditions: 10 μM SB203580, 1 μM Semapimod, 3 μM BIRB796, 1 μM PH-797804, 3 μM VX-702, 3 μM LY2228820, 3 μM TAK-715, * p<0.01
# Experimental: The medium was removed from a culture dish culturing cynomolgus monkey corneal endothelial cells. PBS (-) heated to 37° C. in advance was added thereto and the cells were washed. This operation was repeated twice. After removing the PBS (-), 0.05% Trypsin-EDTA (NacalaiTesque, 35554-64) was added and the cells were incubated for 10 minutes at 37° C. (5% CO2). The cells were then suspended in DMEM (Nacalai Tesque, 08456-94)+10% FBS (Biowest, S1820-500)+1% penicillin/streptomycin (Nacalai Tesque, catalog number: 26252-94) and centrifuged for 3 minutes at 1200 rpm to collect the cells. A 96-well plate was treated with an FNC coating mix (50 ml ([…], catalog number: 0407). The monkey corneal endothelial cells (lot: 20120404-3L-P9) were seeded in the coated 96-well plate at a ratio of 3000 cells/well. The cells were cultured for 30 hours at 37° C. (5% CO2). After 30 hours, the medium was removed and changed to a serum free medium: DMEM+1% P/S to culture the cells for 18 hours. […] SMC20120918), BIRB796 (Doramapimod) (Selleck Chemicals, catalog number: S1574, lot number: S157402), PH-797804 (Selleck Chemicals, catalog number: S2726, lot number: 01), VX-702 (Selleck Chemicals, catalog number: S6005, lot number: 02), LY2228820 (Selleck Chemicals, catalog number: S1494, lot number: 01), and TAK-715 (Selleck Chemical, catalog number: […] DMSO was added to the control. After 24 hours, a BrdU labeling reagent (Amersham Cell Proliferation Biotrak ELISA System, Version 2, GE Healthcare, catalog number: RPN250) was further added at a ratio of 1:1000 to the DMEM+10% FBS+1% P/S medium. […] DMSO was added to the control. After 24 hours, BrdU ELISA was carried out with Amersham Cell Proliferation Biotrak ELISA System, Version 2 (GE Healthcare, catalog number: RPN250). The absorbance at 450 nm was measured.
Compound,BrdU uptake as a percentage with respect to the control (proliferation) [1],BrdU uptake as a percentage with respect to the control (proliferation) [2]
"Cc1ccc(-n2nc(C(C)(C)C)cc2NC(=O)Nc2ccc(OCCN3CCOCC3)c3ccccc23)cc1 [BIRB796, N-[3-tert-butyl-1-(4-methylphenyl)pyrazole-5-yl]-N′-[4-(2-morpholinoethoxy)-1-naphthyl]urea]",promotes proliferation,promotes proliferation
"CC(C)(C)Cn1c(N)nc2ccc(-c3nc(C(C)(C)C)[nH]c3-c3ccc(F)cc3)nc21 [LY2228820, 5-(2-(tert-butyl)-5-(4-fluorophenyl)-1H-imidazole-4-yl)-3-neopentyl-3H-imidazo[4,5-b]pyridine-2-amine]",promotes proliferation,promotes proliferation
"CNC(=O)c1ccc(C)c(-n2c(C)cc(OCc3ccc(F)cc3F)c(Br)c2=O)c1 [PH-797804, 3-(3-bromo-4-((2,4-difluorobenzyl)oxy)-6-methyl-2-oxopyridine-1(2H)-yl)-N,4-dimethylbenzamide]",promotes proliferation,promotes proliferation
"C[S+]([O-])c1ccc(-c2nc(-c3ccncc3)c(-c3ccc(F)cc3)[nH]2)cc1 (stereo not shown) [SB203580, 4-(4-fluorophenyl)-2-(4-methylsulfinylphenyl)-5-(4-pyridyl)-1H-imidazole]",promotes proliferation,promotes proliferation
"CCc1nc(-c2cccc(C)c2)c(-c2ccnc(NC(=O)c3ccccc3)c2)s1 [TAK-715, 2-benzamide-4-[2-ethyl-4-(3-methylphenyl)thiazole-5-yl]pyridine]",promotes proliferation,promotes proliferation
